Experimental data taken from PMC4926326, “Synthesis, Biological Activity, and Apoptotic Properties of NO-Donor/Enmein-Type ent-Kauranoid Hybrids” (International Journal of Molecular Sciences, 2016).
≈ marks a conversion by molar mass, not a printed value. Where two headings read alike, the source gives them in different places.

Tests used:
[1] = system: Bacillus subtilis (CMCC 63501); assay: Antibacterial assay, microbroth dilution MIC; format: cell-based; conditions: for MIC: Bacillus subtilis, read-out: MIC B. subtilis
Source text: (§1) The antibacterial activity of NO donor/enmein-type ent-kauranoid hybrids 9a–i against the Gram-negative bacterium Escherichia coli (ATCC 25922), Gram-positive bacterium Staphylococcus aureus (ATCC 29213) and Bacillus subtilis (CMCC 63501), and the fungus Monilia albicans (ATCC 10231) was first disclosed and summarized in Table 1. […] Thus, the introduction of NO-donor substituent groups at the 14-position of enmein-type 6,7-seco-ent-kauranoid could improve antimicrobial activity against S. aureus and B. subtilis.
(§2) The minimal inhibitory concentrations (MICs) were carried out by microbroth dilution method described by the Clinical Laboratory Standards Institute. A stock solution of all the target compounds was prepared with DMSO-medium (1:2), and then graded quantities of the test compounds were diluted with medium. The specified concentration suspension of fungus and bacterium contained approximately 10^3, and 10^5 CFU/mL was added into microtitration plates. The inoculated 96-well plates were incubated at 35 °C for 18 h. MIC was defined as the lowest concentrations that prevented visible growth of the bacteria.

[2] = system: Escherichia coli (ATCC 25922); assay: Antibacterial assay, microbroth dilution MIC; format: cell-based; conditions: for MIC: Escherichia coli, read-out: MIC E. coli
Source text: as §1, §2

[3] = system: Staphylococcus aureus (ATCC 29213); assay: Antibacterial assay, microbroth dilution MIC; format: cell-based; conditions: for MIC: Staphylococcus aureus, read-out: MIC S. aureus
Source text: as §1, §2

[4] = system: Monilia albicans (ATCC 10231); assay: Antifungal assay, microbroth dilution MIC; format: cell-based; conditions: Candida albicans, read-out: MIC M. albicans
Source text: as §1, §2

[5] = system: Bel-7402 hepatoma cell line; assay: MTT antiproliferative assay; format: cell-based, human; conditions: for IC50: Homo sapiens, read-out: IC50 Bel-7402; for SI (selectivity index): SI = IC50, L-02/IC50, Bel-7402
Experimental: (§3) The antiproliferative activity of 9a–i against four human cancer cell lines K562 leukemia cell line, MGC-803 gastric cancer cell line, CaEs-17 esophageal cancer cell line, and Bel-7402 hepatoma cell line, and human normal liver cells L-02 was evaluated by MTT assay (Table 2).
(§4) MTT assay was developed to monitor mammalian cell survival and proliferation in vitro [32]. CaEs-17 cells (K562, Bel-7402 and MGC-803 cells) from American Type Culture Collection (ATCC, Manassas, VA, USA) were cultivated in RPMI-1640 medium supplemented with 5% fetal bovine serum (v/v), 100 U/mL penicillin, and […] streptomycin. Cells (5 × 10^4 cell/mL) at the log phase of their growth cycle were added to each well of a 96-well plate (100 µL/well) and incubated for 24 h at 37 °C in a humidified atmosphere of 5% CO2. Then, cells were treated with or without test compounds in different concentrations. After 72 h, 5 mg/mL MTT solution (20 µL per well) was added. Cells were incubated at 37 °C. After 4 h, MTT solution was removed and DMSO was added to each well (150 µL). Ten minutes later at room temperature, the optical density (OD) values were measured at the wavelength of 490 nm on a Microplate Reader NO. 550 (BIO-RAD Instruments Inc., Hercules, CA, USA). In this experiment, 10 µg/mL of Taxol was used as the positive control and 0.1% DMSO was used as the negative reference.

K562 leukemia cell line = assay: MTT antiproliferative assay; format: cell-based, human; conditions: read-out: IC50 K562
Experimental: as §3, §4

[6] = system: MGC-803 gastric cancer cell line; assay: MTT antiproliferative assay; format: cell-based, human; conditions: read-out: IC50 MGC-803
Experimental: as §3, §4

[7] = system: CaEs-17 esophageal cancer cell line; assay: MTT antiproliferative assay; format: cell-based; conditions: Homo sapiens, read-out: IC50 CaEs-17
Experimental: as §3, §4

[8] = system: human normal liver cells L-02; assay: MTT assay on normal cells; format: cell-based; conditions: 72 h, read-out: IC50 L-02
Experimental: as §3, §4

[9] = Bel-7402, MTT, 72 h, mean ± SD of three experiments
[10] = Homo sapiens, K562, 72 h, MTT, 72 h, mean ± SD of three experiments
[11] = Homo sapiens, MGC-803, 72 h, MTT, 72 h, mean ± SD of three experiments
[12] = CaEs17, MTT, 72 h, mean ± SD of three experiments
[13] = MTT, normal liver cells, mean ± SD of three experiments
[14] = MTT, 72 h, mean ± SD of three experiments

MIC ([1]; CMCC63501, 35 °C, 18 h) | MIC ([2]; ATCC25922, 35 °C, 18 h) | MIC ([3]; ATCC29213, 35 °C, 18 h) | MIC ([4]; ATCC10231, 35 °C, 18 h) | IC50 [5, 9] | IC50 (K562 leukemia cell line; [10]) | IC50 [6, 11] | IC50 [7, 12] | melting point | Structure (SMILES) | SI (selectivity index) [5] | IC50 [8, 13] | other results
– | – | – | – | – | – | – | – | – | C=C1C(=O)[C@@]23C(=O)O[C@H]4CCC(C)(C)[C@H]5[C@H](O)OC[C@@]45[C@@H]2CC[C@@H]1[C@H]3O [Compound 8] | – | – | MIC ([1]; CMCC63501, 18 h): > 100 µg/mL; MIC ([2]; ATCC25922, 18 h): > 100 µg/mL; MIC ([3]; ATCC29213, 18 h): > 100 µg/mL; MIC ([4]; ATCC10231, 18 h): > 100 µg/mL; IC50 ([5]; Bel-7402, 72 h): 33 ± 2.19 µM; IC50 (K562 leukemia cell line; Homo sapiens, K562, 72 h): 8.11 ± 0.76 µM; IC50 ([6]; Homo sapiens, MGC-803, 72 h): 14.2 ± 1.22 µM; IC50 ([7]; CaEs17, 72 h): 30.8 ± 2.09 µM; IC50 [8]: 24.4 ± 1.59 µM
– | – | – | – | – | – | – | – | – | O=C(N[C@H](CO)[C@H](O)c1ccc([N+](=O)[O-])cc1)C(Cl)Cl [Chloromycetin, reference compound] | – | – | MIC B. subtilis ([1]; 35 °C, 18 h): 8 µg/mL (≈ 24.8 µM); MIC E. coli ([2]; 35 °C, 18 h): 4 µg/mL (≈ 12.4 µM); MIC S. aureus ([3]; 35 °C, 18 h): 4 µg/mL (≈ 12.4 µM)
16 µg/mL (≈ 20.7 µM) | > 100 µg/mL | 16 µg/mL (≈ 20.7 µM) | > 100 µg/mL | 1.08 ± 0.05 µM | 2.11 ± 0.16 µM | 1.49 ± 0.11 µM | 4.68 ± 0.31 µM | 78 to 80 °C | C=C1C(=O)[C@@]23C(=O)O[C@H]4CCC(C)(C)[C@H]5[C@H](O)OC[C@@]45[C@@H]2CC[C@@H]1[C@H]3OC(=O)CCCC(=O)OCCCCOc1no[n+]([O-])c1S(=O)(=O)c1ccccc1 [Compound 9h] | 11.1 | 12.1 ± 1.08 µM | –
– | – | – | – | 1.89 ± 0.09 µM | 0.41 ± 0.02 µM | 0.85 ± 0.06 µM | 0.43 ± 0.03 µM | – | CC(=O)O[C@H]1C(=O)[C@@]2(C)[C@H]([C@H](OC(=O)c3ccccc3)[C@]3(O)C[C@H](OC(=O)[C@H](O)[C@@H](NC(=O)c4ccccc4)c4ccccc4)C(C)=C1C3(C)C)[C@]1(OC(C)=O)CO[C@@H]1C[C@@H]2O [Taxol, reference compound] | 1.9 | 3.73 ± 0.17 µM | –
2 µg/mL (≈ 2.69 µM) | > 100 µg/mL | 4 µg/mL (≈ 5.37 µM) | > 100 µg/mL | 1.2 ± 0.08 µM | 2.31 ± 0.21 µM | 1.62 ± 0.08 µM | 4.83 ± 0.3 µM | 88 to 89 °C | C=C1C(=O)[C@@]23C(=O)O[C@H]4CCC(C)(C)[C@H]5[C@H](O)OC[C@@]45[C@@H]2CC[C@@H]1[C@H]3OC(=O)CCCC(=O)OCCOc1no[n+]([O-])c1S(=O)(=O)c1ccccc1 [Compound 9b] | 13.9 | 16.7 ± 0.17 µM | –
16 µg/mL (≈ 21.1 µM) | > 100 µg/mL | 16 µg/mL (≈ 21.1 µM) | > 100 µg/mL | 1.27 ± 0.11 µM | 2.26 ± 0.08 µM | 1.43 ± 0.08 µM | 5.13 ± 0.22 µM | 85 to 87 °C | C=C1C(=O)[C@@]23C(=O)O[C@H]4CCC(C)(C)[C@H]5[C@H](O)OC[C@@]45[C@@H]2CC[C@@H]1[C@H]3OC(=O)CCC(=O)OCCCCOc1no[n+]([O-])c1S(=O)(=O)c1ccccc1 [Compound 9g] | 9.1 | 11.6 ± 0.39 µM | –
32 µg/mL (≈ 87.8 µM) | > 100 µg/mL | 32 µg/mL (≈ 87.8 µM) | > 100 µg/mL | 7.48 ± 0.53 µM | 4.76 ± 0.32 µM | 5.69 ± 0.39 µM | 11 ± 1.02 µM | – | C=C1C(=O)[C@]23[C@H](O)[C@H]1CC[C@H]2[C@@]12CO[C@]3(O)[C@@H](O)[C@@H]1C(C)(C)CC[C@@H]2O [Compound 7, oridonin, reference compound] | 2.4 | 18.3 ± 0.81 µM | –
– | – | – | 4 µg/mL (≈ 13.1 µM) | – | – | – | – | – | OC(Cn1cncn1)(Cn1cncn1)c1ccc(F)cc1F [Fluconazole, reference compound] | – | – | –
2 µg/mL (≈ 2.69 µM) | > 100 µg/mL | 4 µg/mL (≈ 5.37 µM) | > 100 µg/mL | 1.23 ± 0.08 µM | 2.15 ± 0.12 µM | 1.5 ± 0.1 µM | 4.98 ± 0.42 µM | 110 to 112 °C | C=C1C(=O)[C@@]23C(=O)O[C@H]4CCC(C)(C)[C@H]5[C@H](O)OC[C@@]45[C@@H]2CC[C@@H]1[C@H]3OC(=O)CCC(=O)OCCCOc1no[n+]([O-])c1S(=O)(=O)c1ccccc1 [Compound 9d] | 11.0 | 13.6 ± 1.31 µM | –
64 µg/mL (≈ 87.6 µM) | > 100 µg/mL | 16 µg/mL (≈ 21.9 µM) | > 100 µg/mL | 1.33 ± 0.1 µM | 2.47 ± 0.16 µM | 1.83 ± 0.16 µM | 5.12 ± 0.42 µM | 92 to 94 °C | C=C1C(=O)[C@@]23C(=O)O[C@H]4CCC(C)(C)[C@H]5[C@H](O)OC[C@@]45[C@@H]2CC[C@@H]1[C@H]3OC(=O)CCC(=O)OCCOc1no[n+]([O-])c1S(=O)(=O)c1ccccc1 [Compound 9a] | 7.7 | 10.4 ± 0.61 µM | –
16 µg/mL (≈ 21.1 µM) | > 100 µg/mL | 16 µg/mL (≈ 21.1 µM) | > 100 µg/mL | 0.92 ± 0.05 µM | 1.92 ± 0.09 µM | 1.29 ± 0.12 µM | 4.27 ± 0.35 µM | 82 to 84 °C | C=C1C(=O)[C@@]23C(=O)O[C@H]4CCC(C)(C)[C@H]5[C@H](O)OC[C@@]45[C@@H]2CC[C@@H]1[C@H]3OC(=O)CCCC(=O)OCCCOc1no[n+]([O-])c1S(=O)(=O)c1ccccc1 [Compound 9e] | 18.6 | 17.2 ± 0.77 µM | –
2 µg/mL (≈ 2.48 µM) | > 100 µg/mL | 16 µg/mL (≈ 19.8 µM) | > 100 µg/mL | 0.78 ± 0.04 µM | 1.25 µM | 1.86 µM | 3.82 ± 0.19 µM | 126 to 128 °C | C=C1C(=O)[C@@]23C(=O)O[C@H]4CCC(C)(C)[C@H]5[C@H](O)OC[C@@]45[C@@H]2CC[C@@H]1[C@H]3OC(=O)c1ccccc1C(=O)OCCCCOc1no[n+]([O-])c1S(=O)(=O)c1ccccc1 [Compound 9i] | 18.6 | 14.6 ± 0.86 µM | IC50 (K562 leukemia cell line; [14]): 1.86 ± 0.18 µM; IC50 [6, 14]: 1.25 ± 0.1 µM
4 µg/mL (≈ 5.14 µM) | > 100 µg/mL | 8 µg/mL (≈ 10.3 µM) | > 100 µg/mL | 0.83 ± 0.06 µM | 1.93 ± 0.1 µM | 1.34 ± 0.13 µM | 3.76 ± 0.37 µM | 137 to 139 °C | C=C1C(=O)[C@@]23C(=O)O[C@H]4CCC(C)(C)[C@H]5[C@H](O)OC[C@@]45[C@@H]2CC[C@@H]1[C@H]3OC(=O)c1ccccc1C(=O)OCCOc1no[n+]([O-])c1S(=O)(=O)c1ccccc1 [Compound 9c] | 23.9 | 19.87 ± 0.18 µM | –
